Experimental data reported in patent US20160326143A1, “COMPOUNDS AND USES” (AstraZeneca AB, priority 2015, published 2016).

target: Recombinant human LTC4 synthase (Homo sapiens (Human), UniProt Q16873); assay: In vitro hLTC4 synthase enzyme assay (Test A); format: biochemical; conditions: Test A (Examples 1-61); substrate LTA4, LTC4 detected by HTRF; median of at least two determinations
Experimental: In Vitro hLTC4 Synthase Enzyme Assay (Test A)
Recombinant human LTC4 synthase is expressed in Piccia pastoralis and the purified enzyme is dissolved in 25 mM tris-buffer pH 7.8 supplemented with 0.1 mM glutathione (GSH) and stored at −80° C.
The buffer is used as background. Runs are performed in duplicates.
The reaction is stopped after 1 min by addition of double the reaction volume of a stop solution (MeOH:H2O:acetic acid 70:30:1).
After 15 fold dilution in PBS, LTC4 formation is detected with LTC4 HTRF kit (Cisbio, cat. No 64LC4PEC) and a fluorescence reader. Typically 6 μL of sample is mixed with 3 μL of each of the HTRF reagents d2 and k and analyzed as described in the kit manual.

Recombinant human LTC4 synthase, sequence (Q16873 whole entry): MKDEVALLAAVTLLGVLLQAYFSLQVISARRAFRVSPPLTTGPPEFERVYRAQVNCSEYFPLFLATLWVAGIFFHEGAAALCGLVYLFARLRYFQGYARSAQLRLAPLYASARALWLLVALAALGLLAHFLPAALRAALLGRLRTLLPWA

Which IC50 does the source give for `COc1cc(N(CC2CC2)c2cccc3ccccc23)ccc1C(=O)C1CC1C(=O)O` (stereo not shown) [Example 48, 2-(4-((Cyclopropylmethyl)(naphthalen-1-yl)amino)-2-methoxybenzoyl)cyclopropanecarboxylic acid] here?
Its IC50 is 0.046 µM.

`COc1cc(N(CC2CC2)c2ccc(Cl)cc2)ccc1C(=O)C1CC1C(=O)O` (stereo not shown) [Example 49, 2-(4-((4-Chlorophenyl)(cyclopropylmethyl)amino)-2-methoxybenzoyl)cyclopropanecarboxylic acid] was tested. Which IC50 did it give?
The IC50 was 0.065 µM.

With `COc1cc(N(CC2CC2)c2ccc(C)c(C)c2)ccc1C(=O)C1CC1C(=O)O` (stereo not shown) [Example 50, 2-(4-((Cyclopropylmethyl)(3,4-dimethylphenyl)amino)-2-methoxybenzoyl)cyclopropanecarboxylic acid] as the molecule, how does the IC50 read?
The IC50 was 0.075 µM.

`COc1cc(N(Cc2ccc(Cl)cc2)CC2CC2)ccc1C(=O)C1CC1C(=O)O` (stereo not shown) [Example 51, 2-(4-((4-Chlorobenzyl)(cyclopropylmethyl)amino)-2-methoxybenzoyl)cyclopropanecarboxylic acid] was tested. Which IC50 did it give?
Its IC50 is 0.068 µM.

For `COc1cc(N(CC2CC2)c2ccc(C)c3ncccc23)ccc1C(=O)C1CC1C(=O)O` (stereo not shown) [Example 52, 2-(4-((Cyclopropylmethyl)(8-methylquinolin-5-yl)amino)-2-methoxybenzoyl)cyclopropanecarboxylic acid], which IC50 is on record?
Its IC50 is 0.359 µM.

Which IC50 does the source give for `COc1cc(N(CC2CC2)c2ccc(C(F)(F)F)c3cccnc23)ccc1C(=O)C1CC1C(=O)O` (stereo not shown) [Example 53, 2-(4-((Cyclopropylmethyl)(5-(trifluoromethyl)quinolin-8-yl)amino)-2-methoxybenzoyl)cyclopropanecarboxylic acid] here?
Its IC50 is 0.152 µM.

How did the IC50 turn out when `O=C(O)C1CC1C(=O)c1ccc(N(CC2CC2)c2ccc(Cl)cc2)cn1` (stereo not shown) [Example 54, 2-(5-((4-Chlorophenyl)(cyclopropylmethyl)amino)picolinoyl)cyclopropanecarboxylic acid] was run?
The IC50 was 0.424 µM.

Which IC50 does the source give for `O=C(O)C1CC1C(=O)c1ccc(N(Cc2ccc(Cl)cc2)CC2CC2)cn1` (stereo not shown) [Example 55, 2-(5-((4-Chlorobenzyl)(cyclopropylmethyl)amino)picolinoyl)cyclopropanecarboxylic acid] here?
Its IC50 is 0.636 µM.

How did the IC50 turn out when `COc1nc(C(=O)C2CC2C(=O)O)ncc1N(CC1CC1)c1ccc(Cl)c2ccccc12` (stereo not shown) [Example 56, 2-(5-((4-Chloronaphthalen-1-yl)(cyclopropylmethyl)amino)-4-methoxypyrimidine-2-carbonyl)cyclopropanecarboxylic acid] was run?
Its IC50 is 0.017 µM.

`COc1nc(C(=O)C2CC2C(=O)O)ncc1N(CC1CC1)c1cccc2ccccc12` (stereo not shown) [Example 57, 2-(5-((Cyclopropylmethyl)(naphthalen-1-yl)amino)-4-methoxypyrimidine-2-carbonyl)cyclopropanecarboxylic acid] was tested. Which IC50 did it give?
The IC50 was 0.05 µM.

With `COc1nc(C(=O)C2CC2C(=O)O)ncc1N(CC1CC1)c1ccc(F)c2ccccc12` (stereo not shown) [Example 58, 2-(5-((Cyclopropylmethyl)(4-fluoronaphthalen-1-yl)amino)-4-methoxypyrimidine-2-carbonyl)cyclopropanecarboxylic acid] as the molecule, how does the IC50 read?
The IC50 was 0.019 µM.

For `COc1nc(C(=O)C2CC2C(=O)O)ncc1N(CC1CC1)c1ccc(C)c2ccccc12` (stereo not shown) [Example 59, 2-(5-((Cyclopropylmethyl)(4-methylnaphthalen-1-yl)amino)-4-methoxypyrimidine-2-carbonyl)cyclopropanecarboxylic acid], which IC50 is on record?
The IC50 was 0.018 µM.

How did the IC50 turn out when `COc1cc(N(CC2CC2)c2cccc3ccccc23)cnc1C(=O)C1CC1c1nnn[nH]1` (stereo not shown) [Example 60, (2-(1H-Tetrazol-5-yl)cyclopropyl)(5-((cyclopropylmethyl)(naphthalen-1-yl)amino)-3-methoxypyridin-2-yl)methanone] was run?
The IC50 was 0.096 µM.

How did the IC50 turn out when `COc1cc(N(CC2CC2)c2ccc(F)c3ccccc23)cnc1C(=O)C1CC1c1nnn[nH]1` (stereo not shown) [Example 61, (2-(1H-Tetrazol-5-yl)cyclopropyl)(5-((cyclopropylmethyl)(4-fluoronaphthalen-1-yl)amino)-3-methoxypyridin-2-yl)methanone] was run?
The IC50 was 0.039 µM.

target: human recombinant purified LTC4 synthase (Homo sapiens (Human), UniProt Q16873); assay: not given; conditions: read-out: hLTC4 synthase IC50; Test B (Examples 62-65); substrate LTA4 methyl ester, product detected by LCMSMS; median of at least two determinations
Sequence (Q16873 whole entry): as above

With `COc1nc(N(CC(C)(C)F)c2cc(C(F)(F)F)ccc2F)cnc1C(=O)[C@H]1C[C@@H]1C(=O)O` [Example 63, (1S,2S)-2-[(5-{(2-Fluoro-2-methylpropyl)[2-fluoro-5-(trifluoromethyl)phenyl]amino}-3-methoxypyrazin-2-yl)carbonyl]cyclopropanecarboxylic acid] as the molecule, how does the IC50 read?
The IC50 was 0.000248 µM.

How did the IC50 turn out when `COc1cc(N(CC(C)C)c2cc(C(F)(F)F)ccc2F)cnc1C(=O)[C@H]1C[C@@H]1C(=O)O` [Example 65, (1S,2S)-2-[(5-{[2-Fluoro-5-(trifluoromethyl)phenyl](2-methylpropyl)amino}-3-methoxypyridin-2-yl)carbonyl]cyclopropanecarboxylic acid] was run?
The IC50 was 0.000658 µM.
